Each compound was assayed against EGFR (Homo sapiens, UniProt P00533) (assay: Biochemical EGFR assay (ELISA, A431 cell lysate)). Conditions: read-out: bio EGFr IC50.
Design: A431 cell lysate (Screening Lab, SUGEN, Inc.); host or cells: A431
Summary of the method: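 EGFR captured from A431 cell lysate onto anti-EGFR-coated plates, then incubated with test compound for 30 min at room temperature. Tyrosine phosphorylation with ATP/MnCl2 was stopped with EDTA after 5 min and detected by anti-phosphotyrosine ELISA with peroxidase/ABTS read-out.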

Chain of EGFR (P00533 25-1210): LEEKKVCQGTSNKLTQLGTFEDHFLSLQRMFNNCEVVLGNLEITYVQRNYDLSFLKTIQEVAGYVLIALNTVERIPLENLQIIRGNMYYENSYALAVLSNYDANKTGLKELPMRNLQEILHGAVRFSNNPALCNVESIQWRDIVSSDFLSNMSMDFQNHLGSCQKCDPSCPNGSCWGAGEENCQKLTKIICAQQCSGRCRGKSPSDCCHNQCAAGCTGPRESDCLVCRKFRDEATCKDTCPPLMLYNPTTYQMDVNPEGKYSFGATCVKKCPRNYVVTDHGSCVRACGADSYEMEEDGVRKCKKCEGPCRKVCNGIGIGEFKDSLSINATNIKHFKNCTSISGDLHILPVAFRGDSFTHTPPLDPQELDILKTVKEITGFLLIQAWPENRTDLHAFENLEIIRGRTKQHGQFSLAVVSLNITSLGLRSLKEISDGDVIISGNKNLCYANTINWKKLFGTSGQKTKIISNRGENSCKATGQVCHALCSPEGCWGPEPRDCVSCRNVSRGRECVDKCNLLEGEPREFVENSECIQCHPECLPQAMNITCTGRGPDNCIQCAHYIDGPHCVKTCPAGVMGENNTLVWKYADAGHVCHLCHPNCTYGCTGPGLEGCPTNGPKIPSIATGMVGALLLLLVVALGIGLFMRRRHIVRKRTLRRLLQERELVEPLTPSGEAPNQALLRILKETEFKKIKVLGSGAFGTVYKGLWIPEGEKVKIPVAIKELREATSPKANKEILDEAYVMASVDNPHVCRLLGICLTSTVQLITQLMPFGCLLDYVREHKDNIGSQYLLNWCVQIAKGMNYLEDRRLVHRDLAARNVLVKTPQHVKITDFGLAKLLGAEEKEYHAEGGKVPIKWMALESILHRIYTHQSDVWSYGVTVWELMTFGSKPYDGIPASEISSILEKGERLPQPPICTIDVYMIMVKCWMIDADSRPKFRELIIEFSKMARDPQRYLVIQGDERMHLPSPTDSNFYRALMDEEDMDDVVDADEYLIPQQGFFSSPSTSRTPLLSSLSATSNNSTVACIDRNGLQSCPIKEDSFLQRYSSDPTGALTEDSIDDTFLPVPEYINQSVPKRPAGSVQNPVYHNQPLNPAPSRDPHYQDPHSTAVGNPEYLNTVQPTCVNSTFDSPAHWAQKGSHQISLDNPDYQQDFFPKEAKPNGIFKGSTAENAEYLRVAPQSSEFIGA

| SMILES | IC50 [µM] |
| --- | --- |
| COc1c(C(C)C)cc(/C=C2/C(=O)Nc3cc(NC(=O)OC(C)(C)C)ccc32)cc1C(C)C [Example 52, [3-(3,5-Diisopropyl-4-methoxybenzylidene)-2-oxo-2,3-dihydro-1H-indol-6-yl]-carbamic acid tert-butyl ester] | > 100 |
| COc1c(C(C)C)cc(/C=C2\C(=O)Nc3cccc(C)c32)cc1C(C)C [Example 53, 3-(3,5-Diisopropyl-4-methoxybenzylidene)-4-methyl-1,3-dihydroindol-2-one] | > 100 |
| COc1c(C(C)C)cc(/C=C2/C(=O)Nc3ccc(Br)cc32)cc1C(C)C [Example 54, 5-Bromo-3-(3,5-diisopropyl-4-methoxybenzylidene)-1,3-dihydroindol-2-one] | > 100 |
| CC(=O)Nc1ccc2c(c1)NC(=O)/C2=C/c1ccc(OCCN2CCOCC2)c(C(C)(C)C)c1 [Example 55, N-{3-[3-tert-Butyl-4-(2-morpholin-4-ylethoxy)-benzylidene]-2-oxo-2,3-dihydro-1H-indol-6-yl}-acetamide] | > 100 |
| CC(C)c1cc(/C=C2/C(=O)Nc3ccc(Br)cc32)cc(C(C)C)c1OCCN1CCOCC1 [Example 57, 5-Bromo-3-[3,5-diisopropyl-4-(2-morpholin-4-ylethoxy)benzylidene]-1,3-dihydroindol-2-one] | > 100 |
| CCOc1cccc(-c2cc(OC)c(OC)cc2/C=C2/C(=O)Nc3ccccc32)c1 [Example 58, 3-(3′-Ethoxy-4,5-dimethoxybiphenyl-2-ylmethylene)-1,3-dihydroindol-2-one] | > 100 |
| COc1ccc(/C=C2/C(=O)Nc3ccc(Cl)cc32)cc1-c1cccs1 [Example 59, 5-chloro-3-(4-Methoxy-3-thiophen-2-ylbenzylidene)-1,3-dihydroindol-2-one] | > 100 |
| COc1ccc(/C=C2/C(=O)Nc3ccc(Cl)cc32)cc1-c1cccnc1 [Example 60] | > 100 |
| COc1cccc(-c2cc(OC)c(OC)cc2/C=C2/C(=O)Nc3ccc(Cl)cc32)c1 [Example 61, 5-Chloro-3-(4,5-3′-Trimethoxybiphenyl-2-ylmethylene)-1,3-dihydroindol-2-one] | > 100 |
| COc1cc(/C=C2/C(=O)Nc3ccccc32)c(-c2ccc3ccccc3c2)cc1OC [Example 62, 3-(4,5-Dimethoxy-2-naphthalen-2-ylbenzylidene)-1,3-dihydroindol-2-one] | > 100 |
| COc1ccc2c(c1)NC(=O)/C2=C/c1ccc(OC)c(-c2ccsc2)c1 [Example 64, 6-Methoxy-3-(4-methoxy-3-thiophen-3-ylbenzylidene)-1,3-dihydroindol-2-one] | > 100 |
| COc1ccc(/C=C2/C(=O)Nc3ccccc32)cc1-c1ccccc1 [Example 65, 3-(6-Methoxybiphenyl-3-ylmethylene)-1,3-dihydroindol-2-one] | > 100 |
| O=C1Nc2ccccc2/C1=C\c1ccc2c(c1)CCO2 [Example 66, 3-(2,3-Dihydrobenzofuran-5-ylmethylene)-1,3-dihydroindol-2-one] | > 100 |
| COc1ccc(/C=C2/C(=O)Nc3ccc(Cl)cc32)cc1-c1ccccc1 [Example 67, 5-Chloro-3-(6-methoxybiphenyl-3-ylmethylene)-1,3-dihydroindol-2-one] | > 100 |
| COc1ccc(/C=C2\C(=O)Nc3cccc(C)c32)cc1C1CCCCC1 [Example 68, 3-(3-Cyclohexyl-4-methoxybenzylidene)-4-methyl-1,3-dihydroindol-2-one] | > 100 |
| Cc1cccc2c1/C(=C/c1ccc3c(c1)CCO3)C(=O)N2 [Example 69, 3-(2,3-Dihydrobenzofuran-5-ylmethylene)-4-methyl-1,3-dihydroindol-2-one] | > 100 |
| Cc1cc(CCC(=O)O)c(/C=C2\C(=O)Nc3cc(-c4ccc(F)cc4)ccc32)[nH]1 [Example 107, 3-{2-[6-(4-Fluorophenyl)-2-oxo-1,2-dihydroindol-3-ylidenemethyl]-5-methyl-1H-pyrrol-3-yl}propionic acid] | > 100 |
| CCOC(=O)c1c(C)[nH]c(/C=C2\C(=O)Nc3cc(-c4ccc(F)cc4)ccc32)c1CCC(=O)O [Example 108, 4-(2-Carboxyethyl)-5-[6-(4-fluorophenyl)-2-oxo-1,2-dihydro-indol-3-ylidenemethyl]-2-methyl-1H-pyrrole-3-carboxylic acid ethyl ester] | > 100 |
| COc1ccccc1-c1ccc2c(c1)NC(=O)/C2=C\c1[nH]c(C)cc1CCC(=O)O [Example 109, 3-{2-[6-(2-Methoxyphenyl)-2-oxo-1,2-dihydroindol-3-ylidenemethyl]-5-methyl-1H-pyrrol-3-yl}-propionic acid] | > 100 |
| CCOC(=O)c1c(C)[nH]c(/C=C2\C(=O)Nc3cc(-c4ccccc4OC)ccc32)c1CCC(=O)O [Example 110, 4-(2-Carboxyethyl)-5-[6-(2-methoxyphenyl)-2-oxo-1,2-dihydro-indol-3-ylidenemethyl]-2-methyl-1H-pyrrol-3-yl-carboxylic acid ethyl ester] | > 100 |
| Cc1cc(CCC(=O)O)c(/C=C2\C(=O)Nc3ccc(Cl)cc32)[nH]1 [Example 111, 3-[2-(5-Chloro-2-oxo-1,2-dihydroindol-3-ylidenemethyl)-5-methyl-1H-pyrrol-3-yl]propionic acid] | > 100 |
| O=C1Nc2ccc(Br)cc2/C1=C/c1cc2ccccc2[nH]1 [Example 165, 5-Bromo-3-(1H-indol-2-ylmethylene)-1,3-dihydro-indol-2-one] | > 100 |
| Cc1cccc2c1/C(=C/c1cc3ccccc3[nH]1)C(=O)N2 [Example 166, 3-(1H-indol-2-ylmethylene)-4-methyl-1,3-dihydro-indol-2-one] | > 100 |

Now from value to compound:

| IC50 [µM] | SMILES |
| --- | --- |
| 24 | COc1cc(C)c(/C=C2/C(=O)Nc3ncccc32)cc1C(C)C [Example 45, 3-(5-Isopropyl-4-methoxy-2-methylbenzylidene)-1,3-dihydro-pyrrolo[2,3-b]pyridin-2-one] |
| > 100 | CCOc1cccc(-c2cc(C=C3C(=O)Nc4ccccc43)ccc2OC)c1 [Example 46, 3-(3′-Ethoxy-6-methoxybiphenyl-3-ylmethylene)-1,3-dihydroindol-2-one] |
| 36.8 | COc1ccc(/C=C2/C(=O)Nc3ncccc32)cc1C1CCCC1 [Example 47, 3-(3-Cyclopentyl-4-methoxybenzylidene)-1,3-dihydropyrrolo[2,3-b]pyridin-2-one] |
| > 100 | COc1ccc(/C=C2\C(=O)Nc3cccc(C)c32)cc1C1CCCC1 [Example 48, 3-(3-Cyclopentyl-4-methoxybenzylidene)-4-methyl-1,3-dihydroindol-2-one] |
| > 100 | COc1cc(C=C2C(=O)Nc3ccccc32)c(-c2ccccc2OC)cc1OC [Example 49, 3-(4,5,2′-Trimethoxybiphenyl-2-ylmethylene)-1,3-dihydroindol-2-one] |
| > 100 | CC(=O)Nc1ccc2c(c1)NC(=O)/C2=C/c1ccc(OCCN2CCOCC2)c(-c2ccsc2)c1 [Example 50, N-{3-[4-(2-Morpholin-4-ylethoxy)-3-thiophen-3-ylbenzylidene]-2-oxo-2,3-dihydro-1H-indol-6-yl}-acetamide] |
| > 100 | COc1ccc(/C=C2/C(=O)Nc3ccc(Cl)cc32)cc1C1CCCCC1 [Example 51, 5-Chloro-3-(3-cyclohexyl-4-methoxybenzylidene)-1,3-dihydroindol-2-one] |
| 10.1 | COc1c(C)cc(/C=C2/C(=O)Nc3ncccc32)cc1C [Example 56, 3-(4-Methoxy-3,5-dimethylbenzylidene)-1,3-dihydropyrrolo[2,3-b]pyridin-2-one] |
| 22.6 | COc1ccc(/C=C2/C(=O)Nc3ncccc32)cc1C(C)C [Example 70, 3-(3-Isopropyl-4-methoxybenzylidene)-1,3-dihydropyrrolo[2,3-b]pyridine-2-one] |
| 29.6 | COc1ccc(/C=C2/C(=O)Nc3ncccc32)cc1-c1ccccc1 [Example 71, 3-(6-Methoxybiphenyl-3-ylmethylene)-1,3-dihydropyrrolo[2,3-b]pyridin-2-one] |
| 11.8 | COc1ccc(/C=C2/C(=O)Nc3ncccc32)cc1C1CCCCC1 [Example 72, 3-(3-Cyclohexyl-4-methoxybenzylidene)-1,3-dihydropyrrolo[2,3-b]pyridin-2-one] |
| 7.9 | O=C1Nc2ncccc2/C1=C\c1ccc2c(c1)CCO2 [Example 73, 3-(2,3-Dihydrobenzofuran-5-ylmethylene)-1,3-dihydropyrrolo[2,3-b]pyridin-2-one] |
| 13.2 | COc1c(C(C)C)cc(/C=C2/C(=O)Nc3ncccc32)cc1C(C)C [Example 74, 3-(3,5-Diisopropyl-4-methoxybenzylidene)-1,3-dihydropyrrolo[2,3-b]pyridin-2-one] |

— patent publication US6855730B2, “3-methylidenyl-2-indolinone modulators of protein kinase” (Sugen, Inc., priority 1998, dated 2005)
